Reference: ChEMBL document CHEMBL5678818, “Discovery of potent SOS1 inhibitors that block RAS activation via disruption of the RAS-SOS1 interaction” (Proc Natl Acad Sci U S A, 2019)

What was measured:
[1] = target: SRSF protein kinase 2 (Homo sapiens) (UniProt P78362); test: Inhibition of SRPK2 (unknown origin) assessed as residual activity at 100 nM by KINOMEscan analysis relative to control
[2] = target: Cyclin-dependent kinase 4/cyclin D1 (Homo sapiens) (UniProt P11802+P24385); test: Inhibition of CDK4-cyclin D1 (unknown origin) assessed as residual activity at 100 nM by KINOMEscan analysis relative to control; type: protein-complex assay
[3] = target: T1, Ankyrin repeat and protein kinase domain-containing protein 1 (Homo sapiens) (UniProt Q8NFD2); test: Inhibition of ANKK1 (unknown origin) assessed as residual activity at 100 nM by KINOMEscan analysis relative to control
T1 sequence (whole entry): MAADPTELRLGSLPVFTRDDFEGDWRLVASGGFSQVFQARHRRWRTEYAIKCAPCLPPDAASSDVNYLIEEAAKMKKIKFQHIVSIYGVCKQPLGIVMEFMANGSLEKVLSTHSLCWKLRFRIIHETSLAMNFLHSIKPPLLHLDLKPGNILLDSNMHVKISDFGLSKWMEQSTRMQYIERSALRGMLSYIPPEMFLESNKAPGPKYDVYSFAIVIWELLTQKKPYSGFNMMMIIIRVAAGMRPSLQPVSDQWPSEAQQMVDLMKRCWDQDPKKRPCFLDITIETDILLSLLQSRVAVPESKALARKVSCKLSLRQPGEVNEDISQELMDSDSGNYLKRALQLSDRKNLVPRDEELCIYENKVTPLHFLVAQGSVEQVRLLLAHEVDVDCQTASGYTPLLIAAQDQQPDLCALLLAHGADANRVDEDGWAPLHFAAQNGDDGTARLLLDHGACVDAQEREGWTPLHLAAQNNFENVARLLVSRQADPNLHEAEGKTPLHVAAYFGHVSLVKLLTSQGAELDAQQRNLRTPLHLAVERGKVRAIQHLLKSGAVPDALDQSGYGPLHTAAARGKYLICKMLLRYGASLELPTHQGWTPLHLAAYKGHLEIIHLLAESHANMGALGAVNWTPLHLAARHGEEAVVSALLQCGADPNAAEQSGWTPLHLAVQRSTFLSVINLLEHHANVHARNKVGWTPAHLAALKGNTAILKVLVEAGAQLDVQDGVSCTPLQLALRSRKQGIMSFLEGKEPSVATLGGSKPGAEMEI

[4] = target: T2, NUAK family SNF1-like kinase 1 (Homo sapiens) (UniProt O60285); test: Inhibition of ARK5 (unknown origin) assessed as residual activity at 100 nM by KINOMEscan analysis relative to control
T2 sequence (whole entry): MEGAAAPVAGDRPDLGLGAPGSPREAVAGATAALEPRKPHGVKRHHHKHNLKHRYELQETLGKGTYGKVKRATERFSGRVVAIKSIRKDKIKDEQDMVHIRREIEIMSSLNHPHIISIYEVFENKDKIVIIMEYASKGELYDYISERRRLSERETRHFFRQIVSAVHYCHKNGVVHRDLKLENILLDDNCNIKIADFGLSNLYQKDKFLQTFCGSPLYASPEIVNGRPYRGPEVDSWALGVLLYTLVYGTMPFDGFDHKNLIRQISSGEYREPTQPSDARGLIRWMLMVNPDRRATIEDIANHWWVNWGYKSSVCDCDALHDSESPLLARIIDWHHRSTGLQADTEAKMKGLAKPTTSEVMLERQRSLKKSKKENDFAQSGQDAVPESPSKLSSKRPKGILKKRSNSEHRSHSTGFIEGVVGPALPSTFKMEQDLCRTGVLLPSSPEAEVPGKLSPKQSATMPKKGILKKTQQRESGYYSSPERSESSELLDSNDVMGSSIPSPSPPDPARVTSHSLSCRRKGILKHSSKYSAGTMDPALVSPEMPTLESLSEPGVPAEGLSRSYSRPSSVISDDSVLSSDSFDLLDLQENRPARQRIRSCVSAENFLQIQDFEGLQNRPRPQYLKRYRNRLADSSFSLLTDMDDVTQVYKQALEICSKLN

[5] = target: T3, Cyclin-dependent kinase-like 2 (Homo sapiens) (UniProt Q92772); test: Inhibition of CDKL2 (unknown origin) assessed as residual activity at 100 nM by KINOMEscan analysis relative to control
T3 sequence (whole entry): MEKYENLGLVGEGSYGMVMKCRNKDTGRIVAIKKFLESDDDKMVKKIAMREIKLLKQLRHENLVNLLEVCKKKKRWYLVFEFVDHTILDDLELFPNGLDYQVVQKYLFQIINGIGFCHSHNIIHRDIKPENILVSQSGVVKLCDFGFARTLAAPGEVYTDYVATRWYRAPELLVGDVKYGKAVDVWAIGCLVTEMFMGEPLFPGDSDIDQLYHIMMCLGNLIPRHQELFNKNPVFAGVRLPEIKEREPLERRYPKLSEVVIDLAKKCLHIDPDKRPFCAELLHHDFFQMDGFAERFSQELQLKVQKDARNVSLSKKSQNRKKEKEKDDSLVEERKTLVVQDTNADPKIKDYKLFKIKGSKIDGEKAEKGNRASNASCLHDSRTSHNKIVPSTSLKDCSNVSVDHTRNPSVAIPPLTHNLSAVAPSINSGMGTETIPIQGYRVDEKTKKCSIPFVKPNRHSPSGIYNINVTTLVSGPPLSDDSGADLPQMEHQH

[6] = target: T4, Serine/threonine-protein kinase STK11 (Homo sapiens) (UniProt Q15831); test: Inhibition of LKB1 (unknown origin) assessed as residual activity at 100 nM by KINOMEscan analysis relative to control
T4 sequence (whole entry): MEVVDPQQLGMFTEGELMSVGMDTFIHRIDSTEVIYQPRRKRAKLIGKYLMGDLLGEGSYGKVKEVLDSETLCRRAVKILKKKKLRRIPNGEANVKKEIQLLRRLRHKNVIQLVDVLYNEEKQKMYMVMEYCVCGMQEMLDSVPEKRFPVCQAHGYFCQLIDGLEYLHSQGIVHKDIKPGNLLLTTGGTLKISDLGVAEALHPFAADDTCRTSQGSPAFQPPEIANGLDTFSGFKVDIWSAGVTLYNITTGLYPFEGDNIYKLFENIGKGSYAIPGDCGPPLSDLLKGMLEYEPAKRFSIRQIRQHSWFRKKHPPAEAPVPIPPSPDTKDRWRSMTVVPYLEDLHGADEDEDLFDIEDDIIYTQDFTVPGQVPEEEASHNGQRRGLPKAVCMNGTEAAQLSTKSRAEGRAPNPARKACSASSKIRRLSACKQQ

[7] = target: Non-receptor tyrosine-protein kinase TYK2 (Homo sapiens) (UniProt P29597); test: Inhibition of TYK2 JH1 catalytic domain (unknown origin) assessed as residual activity at 100 nM by KINOMEscan analysis relative to control
Non-receptor tyrosine-protein kinase TYK2 (Homo sapiens), sequence (P29597 whole entry, the tested form may be a part): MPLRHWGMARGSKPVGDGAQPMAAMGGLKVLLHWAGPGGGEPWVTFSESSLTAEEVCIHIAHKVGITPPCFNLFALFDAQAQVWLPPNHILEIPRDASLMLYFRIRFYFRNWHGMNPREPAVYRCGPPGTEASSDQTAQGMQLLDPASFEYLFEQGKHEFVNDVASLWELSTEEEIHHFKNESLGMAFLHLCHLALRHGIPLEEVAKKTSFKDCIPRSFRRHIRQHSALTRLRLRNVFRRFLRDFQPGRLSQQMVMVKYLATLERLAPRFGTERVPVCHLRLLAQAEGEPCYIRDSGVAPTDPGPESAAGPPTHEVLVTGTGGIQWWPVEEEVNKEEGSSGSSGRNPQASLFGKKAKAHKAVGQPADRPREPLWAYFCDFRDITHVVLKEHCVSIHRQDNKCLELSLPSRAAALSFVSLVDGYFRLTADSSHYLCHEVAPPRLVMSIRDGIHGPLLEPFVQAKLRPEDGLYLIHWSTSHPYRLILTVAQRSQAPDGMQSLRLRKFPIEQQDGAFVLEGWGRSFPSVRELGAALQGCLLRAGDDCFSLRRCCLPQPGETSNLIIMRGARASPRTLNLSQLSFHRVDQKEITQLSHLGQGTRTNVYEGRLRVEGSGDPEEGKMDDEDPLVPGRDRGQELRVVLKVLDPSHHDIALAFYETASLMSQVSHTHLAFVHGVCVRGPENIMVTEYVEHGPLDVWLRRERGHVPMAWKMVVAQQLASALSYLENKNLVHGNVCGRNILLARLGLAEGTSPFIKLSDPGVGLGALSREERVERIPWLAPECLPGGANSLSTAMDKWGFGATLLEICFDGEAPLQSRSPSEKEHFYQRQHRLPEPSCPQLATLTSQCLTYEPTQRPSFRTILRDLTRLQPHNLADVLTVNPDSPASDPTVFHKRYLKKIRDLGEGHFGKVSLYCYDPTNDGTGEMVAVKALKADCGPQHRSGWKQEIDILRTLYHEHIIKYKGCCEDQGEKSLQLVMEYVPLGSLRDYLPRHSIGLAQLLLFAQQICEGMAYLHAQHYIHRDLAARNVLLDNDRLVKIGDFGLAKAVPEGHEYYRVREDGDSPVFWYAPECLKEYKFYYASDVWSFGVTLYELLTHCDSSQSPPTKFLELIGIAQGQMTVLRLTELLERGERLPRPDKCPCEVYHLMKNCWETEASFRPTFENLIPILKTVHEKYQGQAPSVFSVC

[8] = target: Calcium/calmodulin-dependent protein kinase type II subunit delta (Homo sapiens) (UniProt Q13557); test: Inhibition of CAMK2D (unknown origin) assessed as residual activity at 100 nM by KINOMEscan analysis relative to control
Calcium/calmodulin-dependent protein kinase type II subunit delta (Homo sapiens), sequence (Q13557 whole entry, canonical isoform): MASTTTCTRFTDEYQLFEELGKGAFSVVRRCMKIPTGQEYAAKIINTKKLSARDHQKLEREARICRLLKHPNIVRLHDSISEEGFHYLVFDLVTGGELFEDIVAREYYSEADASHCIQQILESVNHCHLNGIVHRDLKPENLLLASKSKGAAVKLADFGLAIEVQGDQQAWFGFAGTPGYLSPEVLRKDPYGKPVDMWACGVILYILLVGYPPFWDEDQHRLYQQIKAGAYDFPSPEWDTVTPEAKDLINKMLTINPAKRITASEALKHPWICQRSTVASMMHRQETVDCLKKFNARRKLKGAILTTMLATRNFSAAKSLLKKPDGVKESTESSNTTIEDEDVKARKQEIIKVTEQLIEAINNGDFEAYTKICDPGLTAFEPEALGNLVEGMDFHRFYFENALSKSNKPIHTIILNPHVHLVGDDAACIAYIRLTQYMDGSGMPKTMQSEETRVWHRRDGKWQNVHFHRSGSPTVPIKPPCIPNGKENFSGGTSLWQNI

[9] = target: Casein kinase I isoform delta (Homo sapiens) (UniProt P48730); test: Inhibition of CSNK1D (unknown origin) assessed as residual activity at 100 nM by KINOMEscan analysis relative to control
Casein kinase I isoform delta (Homo sapiens), sequence (P48730 whole entry, looked up, canonical isoform): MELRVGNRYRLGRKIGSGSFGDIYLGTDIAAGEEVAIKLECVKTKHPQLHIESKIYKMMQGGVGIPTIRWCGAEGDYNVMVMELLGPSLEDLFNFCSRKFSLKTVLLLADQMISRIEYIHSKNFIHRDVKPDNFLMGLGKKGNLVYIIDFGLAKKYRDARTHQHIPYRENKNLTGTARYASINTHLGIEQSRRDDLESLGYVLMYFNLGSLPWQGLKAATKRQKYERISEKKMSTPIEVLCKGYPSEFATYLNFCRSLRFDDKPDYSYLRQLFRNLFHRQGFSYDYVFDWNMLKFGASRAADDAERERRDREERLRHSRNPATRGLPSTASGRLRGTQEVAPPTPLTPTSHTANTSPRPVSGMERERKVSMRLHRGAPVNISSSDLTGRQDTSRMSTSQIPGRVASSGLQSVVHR

SRSF protein kinase 2 (Homo sapiens), sequence (P78362 whole entry, looked up): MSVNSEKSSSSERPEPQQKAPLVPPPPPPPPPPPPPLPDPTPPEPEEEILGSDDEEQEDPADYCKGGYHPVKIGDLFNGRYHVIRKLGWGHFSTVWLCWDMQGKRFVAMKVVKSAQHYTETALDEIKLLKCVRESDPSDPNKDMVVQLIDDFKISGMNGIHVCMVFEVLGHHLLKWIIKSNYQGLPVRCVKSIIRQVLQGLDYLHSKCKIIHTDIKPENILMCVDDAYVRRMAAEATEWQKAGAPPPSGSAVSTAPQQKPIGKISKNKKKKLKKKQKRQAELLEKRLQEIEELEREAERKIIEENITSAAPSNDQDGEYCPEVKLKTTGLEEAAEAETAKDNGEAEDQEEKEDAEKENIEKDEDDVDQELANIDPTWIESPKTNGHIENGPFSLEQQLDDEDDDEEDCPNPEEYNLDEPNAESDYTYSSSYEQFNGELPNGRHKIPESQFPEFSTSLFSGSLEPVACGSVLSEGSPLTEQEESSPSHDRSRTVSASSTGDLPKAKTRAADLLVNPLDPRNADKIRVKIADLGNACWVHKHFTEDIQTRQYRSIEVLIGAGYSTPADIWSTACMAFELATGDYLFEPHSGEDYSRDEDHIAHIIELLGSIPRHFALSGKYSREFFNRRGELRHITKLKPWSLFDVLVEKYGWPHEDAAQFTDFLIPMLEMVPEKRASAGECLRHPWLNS

COc1cc2ncnc(N[C@H](C)c3cccc4ccccc34)c2cc1OC
Activity [1]: 92%
Activity [2]: 92%
Activity [3]: 97%
Activity [4]: 87%
Activity [5]: 88%
Activity [6]: 100%
Activity [7]: 94%
Activity [8]: 70%
Activity [9]: 97%
